Measured values as given in patent publication US20160031855A1, “PROTEIN KINASE INHIBITORS” (ORION CORPORATION, priority 2013, published 2016).
Counter-ions that a name gives are not always drawn.

Biological target: T1, FGFR1 kinase (Homo sapiens, UniProt P11362)
T1 construct: purchased Upstate, USA
Assay: TR-FRET assay with FGFR1 kinase
Assay type: biochemical
Conditions: 13 μM ATP; for IC50: dose response, read-out: IC50 of FGFR1 inhibition; for inhibition at 1 µM / Inhibition (%) of FGFR1 at 1000 nM: compound at 1000 nM
Method: 1. Inhibition of FGFR1 kinase
Compounds were screened in the TR-FRET assay with FGFR1 kinase. 5 ng of FGFR1 [Upstate, USA] kinase was used for assay. The compound was incubated with the kinase for 30 minutes at room temperature. After the incubation, substrate mix [40 nM Ultra light poly GT (Perkin Elmer, USA) and 13 μM ATP (Sigma)] was added. The above reaction was stopped by the addition of 40 mM EDTA after the 30 min kinase reaction. The Eu-labelled antiphospho-tyrosine antibody [Perkin Elmer, USA] was added at 0.5 nM and the fluorescence emission at 615 nm/665 nm [excitation at 340 nm] was measured. The compounds were initially screened at 100 nM and 1 μM concentrations. The compounds with >50% inhibition at 100 nM of FGFR1 were taken for the full dose response studies. The final DMSO concentration in the assay was 1%. For IC50 determination, ⅓^rd serial dilution was made from the 20 mM DMSO stock solution. 2 μl of these were transferred to the test wells containing […] of the reaction mixture [total reaction volume 20 μl]. The fluorescence was measured in Perkin Elmer Wallac 1420 Multilabel Counter Victor 3. The IC50 was determined by fitting the dose response data to sigmoidal curve fitting equation using GraphPad Prism software V5.

T1 sequence (P11362 22-822): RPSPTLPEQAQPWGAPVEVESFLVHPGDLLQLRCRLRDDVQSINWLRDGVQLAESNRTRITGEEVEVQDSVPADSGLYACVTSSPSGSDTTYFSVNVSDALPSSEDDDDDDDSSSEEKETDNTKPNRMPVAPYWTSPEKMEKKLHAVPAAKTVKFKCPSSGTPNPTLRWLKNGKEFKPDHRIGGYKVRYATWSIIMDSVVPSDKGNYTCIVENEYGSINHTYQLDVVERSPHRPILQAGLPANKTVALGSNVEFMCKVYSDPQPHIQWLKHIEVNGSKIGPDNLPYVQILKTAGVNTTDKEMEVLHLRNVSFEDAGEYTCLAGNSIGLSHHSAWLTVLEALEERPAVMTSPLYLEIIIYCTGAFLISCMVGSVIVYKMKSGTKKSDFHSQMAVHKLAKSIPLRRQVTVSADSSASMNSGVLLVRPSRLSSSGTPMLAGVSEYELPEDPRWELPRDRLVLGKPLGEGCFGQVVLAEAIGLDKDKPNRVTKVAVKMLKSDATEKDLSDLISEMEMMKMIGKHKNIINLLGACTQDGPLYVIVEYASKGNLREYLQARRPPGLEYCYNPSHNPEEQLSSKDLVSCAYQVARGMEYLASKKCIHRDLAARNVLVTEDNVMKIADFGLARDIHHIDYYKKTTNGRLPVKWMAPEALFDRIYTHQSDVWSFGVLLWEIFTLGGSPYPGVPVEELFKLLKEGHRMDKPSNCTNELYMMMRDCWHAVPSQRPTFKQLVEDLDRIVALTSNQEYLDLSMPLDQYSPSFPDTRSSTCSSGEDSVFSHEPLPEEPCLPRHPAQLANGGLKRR

| SMILES | IC50 | inhibition at 1 µM | Inhibition (%) of FGFR1 at 1000 nM |
| --- | --- | --- | --- |
| Cn1cc(-c2ccc3c(c2)ncn3-c2cc(-c3ccc(F)cc3F)cc(Nc3ccn(C)n3)n2)cn1 [Example 1, 4-(2,4-Difluorophenyl)-N-(1-methyl-1H-pyrazol-3-yl)-6-(5-(1-methyl-1H-pyrazol-4-yl)-1H-benzo[d]imidazol-1-yl)pyridin-2-amine] | 16.5 nM | 97% |  |
| Cn1cc(-c2ccc3c(c2)ncn3-c2cc(-c3ccc(F)cc3F)cc(NS(=O)(=O)C3CC3)n2)cn1 [Example 2 (imido), Sodium salt of imido form of N-(4-(2,4-difluorophenyl)-6-(5-(1-methyl-1H-pyrazol-4-yl)-1H-benzo[d]imidazol-1-yl)pyridin-2-yl)cyclopropanesulfonamide] | 3.3 nM |  | 97% |
| Cn1cc(-c2ccc3c(c2)ncn3-c2cc(-c3ccc(F)cc3F)cc(NS(=O)(=O)C3CC3)n2)cn1 [Example 2, N-(4-(2,4-difluorophenyl)-6-(5-(1-methyl-1H-pyrazol-4-yl)-1H-benzo[d]-imidazol-1-yl)pyridin-2-yl)cyclopropanesulfonamide] | 3.9 nM | 99% |  |
| Cn1cc(-c2ccc3c(c2)ncn3-c2cc(-c3ccc(F)cc3F)cc(NS(C)(=O)=O)n2)cn1 [Example 4, N-(4-(2,4-difluorophenyl)-6-(5-(1-methyl-1H-pyrazol-4-yl)-1H-benzo[d]-imidazol-1-yl)pyridin-2-yl)methanesulfonamide] | 4.3 nM | 98% |  |
| CCS(=O)(=O)Nc1cc(-c2ccc(F)cc2F)cc(-n2cnc3cc(-c4cnn(C)c4)ccc32)n1 [Example 5 (imido), Sodium salt of imido form of N-(4-(2,4-difluorophenyl)-6-(5-(1-methyl-1H-pyrazol-4yl)-1H-benzo[d]imidazol-1-yl)pyridin-2-yl)ethanesulfonamide] | 4.4 nM |  | 98% |
| CCS(=O)(=O)Nc1cc(-c2ccc(F)cc2F)cc(-n2cnc3cc(-c4cnn(C)c4)ccc32)n1 [Example 5, N-(4-(2,4-difluorophenyl)-6-(5-(1-methyl-1H-pyrazol-4-yl)-1H-benzo[d]-imidazol-1-yl)pyridin-2-yl)ethanesulfonamide] | 1.1 nM | 99% |  |
| CC(C)S(=O)(=O)Nc1cc(-c2ccc(F)cc2F)cc(-n2cnc3cc(-c4cnn(C)c4)ccc32)n1 [Example 6 (imido), Imido form of N-(4-(2,4-difluorophenyl)-6-(5-(1-methyl-1H-pyrazol-4-yl)-1H-benzo[d]imidazol-1-yl)pyridin-2-yl)propane-2-sulfonamide] | 1.7 nM |  | 98% |
| CC(C)S(=O)(=O)Nc1cc(-c2ccc(F)cc2F)cc(-n2cnc3cc(-c4cnn(C)c4)ccc32)n1 [Example 6, N-(4-(2,4-difluorophenyl)-6-(5-(1-methyl-1H-pyrazol-4-yl)-1H-benzo[d]-imidazol-1-yl)pyridin-2-yl)propane-2-sulfonamide] | 1.7 nM | 99% |  |
| Cn1cc(-c2ccc3c(c2)ncn3-c2cc(-c3ccccc3F)cc(NS(=O)(=O)C3CC3)n2)cn1 [Example 8 (imido), Sodium salt of imido form of N-(4-(2-fluorophenyl)-6-(5-(1-methyl-1H-pyrazol-4-yl)-1H-benzo[d]imidazol-1-yl)pyridin-2-yl)cyclopropanesulfonamide] | 3.3 nM |  | 97% |
| Cn1cc(-c2ccc3c(c2)ncn3-c2cc(-c3ccccc3F)cc(NS(=O)(=O)C3CC3)n2)cn1 [Example 8, N-(4-(2-fluorophenyl)-6-(5-(1-methyl-1H-pyrazol-4-yl)-1H-benzo[d]imidazol-1-yl)pyridin-2-yl)cyclopropanesulfonamide] | 5.42 nM | 99% |  |
| Cn1cc(-c2ccc3c(c2)ncn3-c2cc(-c3ccccc3F)cc(NS(C)(=O)=O)n2)cn1 [Example 10, N-(4-(2-fluorophenyl)-6-(5-(1-methyl-1H-pyrazol-4-yl)-1H-benzo[d]imidazol-1-yl)pyridin-2-yl)methanesulfonamide] | 5.8 nM | 97% |  |
| CCS(=O)(=O)Nc1cc(-c2ccccc2F)cc(-n2cnc3cc(-c4cnn(C)c4)ccc32)n1 [Example 11 (imido), Sodium salt of imido form of N-(4-(2-fluorophenyl)-6-(5-(1-methyl-1H-pyrazol-4-yl)-1H-benzo[d]imidazol-1-yl)pyridin-2-yl)ethanesulfonamide] | 3.2 nM |  | 98% |
| CCS(=O)(=O)Nc1cc(-c2ccccc2F)cc(-n2cnc3cc(-c4cnn(C)c4)ccc32)n1 [Example 11, N-(4-(2-fluorophenyl)-6-(5-(1-methyl-1H-pyrazol-4-yl)-1H-benzo[d]imidazol-1-yl)pyridin-2-yl)ethanesulfonamide] | 2.8 nM | 98% |  |
| CC(C)S(=O)(=O)Nc1cc(-c2ccccc2F)cc(-n2cnc3cc(-c4cnn(C)c4)ccc32)n1 [Example 12 (imido), Sodium salt of imido form of N-(4-(2-fluorophenyl)-6-(5-(1-methyl-1H-pyrazol-4-yl)-1H-benzo[d]imidazol-1-yl)pyridin-2-yl)propane-2-sulfonamide] | 5.2 nM |  | 99% |
| CC(C)S(=O)(=O)Nc1cc(-c2ccccc2F)cc(-n2cnc3cc(-c4cnn(C)c4)ccc32)n1 [Example 12, N-(4-(2-fluorophenyl)-6-(5-(1-methyl-1H-pyrazol-4-yl)-1H-benzo[d]imidazol-1-yl)pyridin-2-yl)propane-2-sulfonamide] | 1.5 nM | 97% |  |
| Cn1cc(-c2ccc3c(c2)ncn3-c2cc(-c3ccc(F)cc3)cc(NS(=O)(=O)C3CC3)n2)cn1 [Example 14] | 14.4 nM | 98% |  |
| Cn1cc(-c2ccc3c(c2)ncn3-c2cc(-c3ccc(F)cc3)cc(NS(C)(=O)=O)n2)cn1 [Example 16, N-(4-(4-fluorophenyl)-6-(5-(1-methyl-1H-pyrazol-4-yl)-1H-benzo[d]imidazol-1-yl)pyridin-2-yl)methanesulfonamide] | 3.4 nM | 97% |  |
| CC(C)S(=O)(=O)Nc1cc(-c2ccc(F)cc2)cc(-n2cnc3cc(-c4cnn(C)c4)ccc32)n1 [Example 17 (imido), Sodium salt of imido form: of N-(4-(4-fluorophenyl)-6-(5-(1-methyl-1H-pyrazol-4-yl)-1H-benzo[d]imidazol-1-yl)pyridin-2-yl)propane-2-sulfonamide] | 5.2 nM |  | 97% |
| CC(C)S(=O)(=O)Nc1cc(-c2ccc(F)cc2)cc(-n2cnc3cc(-c4cnn(C)c4)ccc32)n1 [Example 17, N-(4-(4-fluorophenyl)-6-(5-(1-methyl-1H-pyrazol-4-yl)-1H-benzo[d]imidazol-1-yl)pyridin-2-yl)propane-2-sulfonamide] | 4.6 nM | 96% |  |
| Cn1cc(-c2ccc3c(c2)ncn3-c2cc(-c3ncccc3F)cc(NS(=O)(=O)C3CC3)n2)cn1 [Example 18, N-(3-fluoro-6′-(5-(1-methyl-1H-pyrazol-4-yl)-1H-benzo[d]imidazol-1-yl)-[2,4′-bipyridin]-2-yl)cyclopropanesulfonamide] | 5 nM |  | 97% |
| CC(=O)Nc1cc(-c2ncccc2F)cc(-n2cnc3cc(-c4cnn(C)c4)ccc32)n1 [Example 19, N-(3-fluoro-6′-(5-(1-methyl-1H-pyrazol-4-yl)-1H-benzo[d]imidazol-1-yl)-[2,4′-bipyridin]-2′-yl)acetamide] | 28.5 nM | 96% |  |
| CN(C)CCn1cc(-c2ccc3c(c2)ncn3-c2cc(-c3ccc(F)cc3F)cc(NS(=O)(=O)C3CC3)n2)cn1 [Example 21, N-(4-(2,4-difluorophenyl)-6-(5-(1-(2-(dimethylamino)ethyl)-1H-pyrazol-4-yl)-1H-benzo[d]imidazol-1-yl)pyridin-2-yl)cyclopropanesulfonamide] | 3.7 nM | 99% |  |
| Cn1cc(-c2ccc3c(c2)ncn3-c2cc(-c3ccccc3F)nc(NS(=O)(=O)C3CC3)n2)cn1 [Example 22, N-(4-(2-fluorophenyl)-6-(5-(1-methyl-1H-pyrazol-4-yl)-1H-benzo[d]imidazol-1-yl)pyrimidin-2-yl)cyclopropanesulfonamide] | 9.2 nM | 97% |  |
| O=S(=O)(Nc1cc(-c2ccc(F)cc2F)cc(-n2cnc3cc(-n4cccn4)ccc32)n1)C1CC1 [Example 23, N-(6-(5-(1H-pyrazol-1-yl)-1H-benzo[d]imidazol-1-yl)-4-(2,4-difluorophenyl)-pyridin-2-yl)cyclopropanesulfonamide] | 10 nM | 97% |  |
| Cn1cc(-c2ccc3c(c2)ncn3-c2cc(-c3ncc(F)cc3F)cc(NS(=O)(=O)C3CC3)n2)cn1 [Example 25, N-(3,5-difluoro-6′-(5-(1-methyl-1H-pyrazol-4-yl)-1H-benzo[d]imidazol-1-yl)-[2,4′-bipyridin]-2′-yl)cyclopropanesulfonamide] | 3.1 nM | 97% |  |
| CC(=O)Nc1cc(-c2ncc(F)cc2F)cc(-n2cnc3cc(-c4cnn(C)c4)ccc32)n1 [Example 26, N-(3,5-difluoro-6′-(5-(1-methyl-1H-pyrazol-4-yl)-1H-benzo[d]imidazol-1-yl)-[2,4′-bipyridin]-2′-yl)acetamide] | 21.9 nM | 94% |  |
